Tests used:
[1] = tested on: breast cancer (MCF7) cell line; assay: Cell viability, XTT tetrazolium colorimetric assay; type: cell-based; settings: 24 hours, 1 nM, 10 nM and 100 nM, vs DMSO control
Description: (§1) FK866 is a potent NAMPT inhibitor that causes the depletion of intracellular NAD+ levels in the cell and ultimately induces apoptosis and cell death. To characterize the effect of FK866 on prostate cancer (PC-3), colon cancer (Caco-2) and breast cancer (MCF7) cell lines, the effects of FK866 on cell death were evaluated. Cells were either control cells, treated with DMSO only, or were treated for 24 hours with 1 nanomolar (nM), 10 nM and 100 nM of FK866, and cell viability was measured using an XTT tetrazolium colorimetric assay.

[2] = tested on: prostate cancer (PC-3) cell line; assay: Cell viability, XTT tetrazolium colorimetric assay; type: cell-based; settings: 24 hours, 1 nM, 10 nM and 100 nM, vs DMSO control
Description: as §1

[3] = tested on: colon cancer (Caco-2) cell line; assay: Cell viability, XTT tetrazolium colorimetric assay; type: cell-based; settings: 24 hours, 1 nM, 10 nM and 100 nM, vs DMSO control
Description: as §1

[4] = tested on: prostate cancer PC3 cell line; assay: In-vivo xenograft model, sensitivity to FK866 by miR-451 expression; design: species or system mice; settings: for change in tumor growth between non-treated and treated group: 15 mg/kg once a day for 5 days repeated weekly
Description: The effect of miR-451 expression levels on efficacy of NAMPT inhibitor was evaluated in an in-vivo xenograft mouse model as in Example 4A. The sensitivity of each prostate cancer cell line (miR-451, antagomiR-451 and scramble miR control) to FK866 treatment was examined in vivo. Twenty mice were injected with each cell line and were divided into two groups: 10 mice were treated with FK866 (15 mg/kg) once a day for 5 days repeated weekly and 10 served as controls, in which no NAMPT inhibitor was injected. The volume of the tumors was measured daily and mice were treated with FK866 from the day all tumors were clinically evident. Treatment with the drug started from day 13 and within 5 days of treatment a change in tumor size was observed between the antagomiR-451 group treated with FK866 and the antagomiR-451 receiving no treatment (FIG. 5A).

NAMPT = NAMPT protein expression by FACS in transfected cells; type: cell-based; settings: PC-3, Caco-2 and MCF7 cell lines; 48 hours after transfection; compared to control scramble-miR cells
Description: (§2) A study was performed to determine if NAMPT is regulated by miR-451 in a representative cell line of each malignancy. Cells comprising prostate cancer (PC-3), colon cancer (Caco-2) and breast cancer (MCF7) cell lines were transiently transfected with a miR-451 mimic while “scrambled” miR-451 served as a control. The prostate cancer (PC-3), colon cancer (Caco-2), and breast cancer (MCF7) cells were obtained from ATCC and cultured according to ATCC growth recommendation. Two hundred pmol miR-451 mimic and 200 pmol scramble miR (IDT, Jerusalem, Israel) were transiently transfected by JETPRIME (Polyplus-transfection) into cells according to manufacturer's instructions.
One to two million transfected cells were collected 48 hours after transfection and fixed using 500 μl BD phosflow fix buffer I (BD Biosciences, San Jose, Calif., USA) for 15 minutes. Then, pellets were washed twice using PBS and resuspended in 500 μl methanol. Samples were incubated for 2 hours in −20° C. […] The cells were analyzed on flow cytometer (FACSCalibur, Becton Dickinson, Le Pont-De-Claix, France) using BD CellQuest™ Pro software.
FIG. 1 presents NAMPT protein expression level analyzed by FACS using a specific anti-NAMPT antibody in prostate cancer (PC-3), colon cancer (Caco-2) and breast cancer (MCF7) cell lines.

miR-451 [5] = assay: miR-451 expression by RT-qPCR in stable transfected lines; type: cell-based
Description: The effect of miR-451 expression level on prostate cancer (PC-3), and breast cancer (MCF7) cell line tumor cells was evaluated in-vitro. Stable lines of each malignancy expressing miR-451 mimic and antagomiR-451 were obtained and transfected as in example 1. miR-451 expression levels in each cell line were validated by quantitative Real Time PCR (RT-qPCR). Total RNA was isolated from 10^7 cells using Qiagen RNeasy isolation kit according to the manufacturer's instruction (Qiagen, Hilden, Germany). 100 ng RNA was converted to cDNA using universal cDNA synthesis kit (Exiqon, Vedbaek, Denmark). RT-qPCR for the miR-451 was performed using Locked-nucleic Acid (LNA™) primers sets (Exiqon, Vedbaek, Denmark). 5S Ribosomal RNA was used as a reference gene. The RT-qPCR reactions were performed in duplicates on the LightCycler 480 (Roche, Rotkreuz, Switzerland) apparatus. The results were expressed as relative expression using the delta Ct method.

miR-451 [6] = assay: miR expression after transient transfection with miR-451 mimic; type: cell-based; settings: PC-3, Caco-2, MCF7 cells transiently transfected, 200 pmol; compared to control cells transfected with scramble miR
Description: as §2
NAMPT protein expression was determined using FACS as follows: […]

PC3 cells = assay: In-vivo xenograft model, tumor growth by miR-451 expression; settings: PC3 xenograft in NSG mice; end of experiment; antagomiR-451 cells compared with miR-451 mimic
Description: (§3) The effect of miR-451 expression levels on tumor cell growth was evaluated in an in-vivo xenograft mice model using MCF7 cells and PC3 cells. Ten million cells harboring antagomiR-451 and miR-451 mimic were injected subcutaneously into the right flanks of 6-8 weeks-old immunodeficient NSG (NOD scid gamma) mice. Ten mice were injected with the MCF7 antagomiR-451 cell line and 11 mice were injected with the miR-451 mimic line. Ten mice were injected with the PC3 antagomiR-451 cell line and the PC3 miR-451 mimic cell line and 8 with the scrambled miR control cell line. The volume of the tumors was measured daily from the day the tumors were clinically evident in all mice.

MCF7 cells = assay: as above; settings: MCF7 xenograft in NSG mice; end of experiment; antagomiR-451 cells compared with miR-451 mimic
Description: as §3

In the case of `O=C(/C=C/c1cccnc1)NCCCCC1CCN(C(=O)c2ccccc2)CC1` [FK866], the cell viability [1] is reported as “gradual decrease in cell viability”, the cell viability [2] is reported as “gradual decrease in cell viability” and the cell viability [3] is reported as “gradual decrease in cell viability”. The “time of treatment until change in tumor size observed vs no treatment” value ([4]; PC3 antagomiR-451 group, treatment started from day 13, 15 mg/kg) was at most 5 days, the “change in tumor growth between non-treated and treated group” value ([4]; mice injected with PC3 antagomiR-451 cells) was “major change in tumor growth” and the “change in tumor growth between non-treated and treated group” value ([4]; mice injected with PC3 miR-451 mimic cells) was “moderate to almost no change in tumor growth”. For the same compound, the “change in tumor growth between non-treated and treated group” value ([4]; mice injected with PC3 scramble miR control cells) was “moderate to almost no change in tumor growth”.
“miR-451 mimic: SEQ ID NO: 1 is the nucleotide sequence of miR-451 mimic (AAACCGUUACCAUUACUGAGUU; listed as RNA, chemistry not given here)” was tested, and the “NAMPT protein expression level” value (NAMPT) was “reduction in NAMPT expression”, the “level in miR-451” value (miR-451 [5]; MCF7 cells, mimic compared with MCF7 cells transfected with antagomiR-451) was “twice as high” and the “increase in miR-451 expression” value (miR-451 [5]; PC3 cells, compared with control (PC3 cells transfected with miR scramble)) was “tenfold increase”. The “increase in the expression levels of the miR” value (miR-451 [6]) was 3 fold.
“antagomiR-451: SEQ ID NO: 3 is the nucleotide sequence of antagomiR-451 (antisense AATGATCTGTAACGGTTT; listed as DNA, chemistry not given here)” was tested, and the “decrease in miR-451 expression” value (miR-451 [5]; PC3 cells, compared to PC3 control cells) was 67%, the tumor volume (PC3 cells) was “significant increase in tumor volume” and the tumor volume (MCF7 cells) was “significant increase in tumor volume”.

From patent publication US20210180138A1, “METHODS FOR PROGNOSIS AND TREATMENT OF SOLID TUMORS” (CUREWIZE HEALTH LTD., priority 2017, published 2021)
